What is called EC50 is the midpoint of the concentration-response curve.

This is an account of results in patent US20220213061A9, “HETEROCYCLIC COMPOUNDS FOR MODULATING NR2F6” (TES Pharma S.r.l., priority 2020, published 2022).

The assay addresses T1, recombinant human NR2F6 protein (Homo sapiens, UniProt P10588).
T1 sequence (P10588 1-404): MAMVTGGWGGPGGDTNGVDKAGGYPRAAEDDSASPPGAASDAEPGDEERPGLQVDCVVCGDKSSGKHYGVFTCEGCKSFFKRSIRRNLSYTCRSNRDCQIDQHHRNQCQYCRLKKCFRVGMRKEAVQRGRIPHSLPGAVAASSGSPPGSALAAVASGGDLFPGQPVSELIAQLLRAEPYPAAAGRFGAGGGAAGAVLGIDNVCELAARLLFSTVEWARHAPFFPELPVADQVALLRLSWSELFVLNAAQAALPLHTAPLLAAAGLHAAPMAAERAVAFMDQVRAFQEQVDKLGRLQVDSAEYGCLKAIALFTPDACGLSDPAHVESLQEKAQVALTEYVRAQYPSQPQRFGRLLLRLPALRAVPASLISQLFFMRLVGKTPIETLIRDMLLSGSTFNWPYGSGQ
The assay can be described thus: Biochemical NR2F6 binding assay (EnSpire label-free). As to conditions: label-free binding to immobilized purified recombinant human NR2F6; ligands 1 nM to 100 uM, 1% DMSO. The essentials: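 Recombinant human NR2F6 was immobilized at pH 4.5 (50 μg/well, 16 h, 4° C) on label-free biosensor plates. Ligands were tested from 1 nM to 100 uM in 1% DMSO, with readings over 30 minutes. Binding was measured as reflected-wavelength shift (pm), and EC50 was derived from concentration-response curves.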

Counter-ions that a name gives are not always drawn.

As for `O=C(Nc1cccc(Oc2ccccn2)c1)[C@H]1CNC[C@@H]1c1ccccc1` (racemic) [Compound I-99, (±)-trans-4-Phenyl-N-[3-(pyridin-2-yloxy)phenyl]pyrrolidine-3-carboxamide dihydrochloride], the EC50 is greater than 50 µM.
The value for `O=C(Nc1cccc(-c2ccccc2)c1)[C@@H]1CNC[C@H]1c1ccccc1` [Compound I-42, (3S,4R)—N-(Biphenyl-3-yl)-4-phenylpyrrolidine-3-carboxamide hydrochloride] was 1 to 10 µM; that for `O=C(Nc1cccc(-c2cccnc2)c1)[C@@H]1CN(Cc2ccccc2)C[C@H]1c1ccccc1` (racemic) [Compound I-63, (±)-trans-1-Benzyl-4-phenyl-N-[3-(pyridin-3-yl)phenyl]pyrrolidine-3-carboxamide] was 1 to 10 µM; that for `c1ccc([C@H]2CNC[C@@H]2Oc2cccc3cnccc23)cc1` (racemic) [Compound I-64, 5-{[(±)-trans-4-Phenylpyrrolidin-3-yl]oxy}isoquinoline dihydrochloride] was 1 to 10 µM.
On to `O=C(Nc1cccc(Cc2ccccc2)c1)[C@@H]1CNC[C@H]1c1ccccc1` (racemic) [Compound I-85, (±)-trans-N-(3-Benzylphenyl)-4-phenylpyrrolidine-3-carboxamide hydrochloride], for which the EC50 lay in the range of 1 to 10 µM.
For `O=C(Nc1cccc(-c2ccc(F)nc2)c1)[C@@H]1CNC[C@H]1c1ccccc1` (racemic) [Compound I-26, (±)-trans-N-[3-(6-Fluoropyridin-3-yl)phenyl]-4-phenylpyrrolidine-3-carboxamide], the concentration for a half-maximal effect (EC50) is 1 to 10 µM.
The value for `O=C(Nc1cccc2ccccc12)[C@H]1CNC[C@@H]1c1ccccc1` [Compound I-74, (3R,4S)—N-(Naphthalen-1-yl)-4-phenylpyrrolidine-3-carboxamide hydrochloride] was 1 to 10 µM; that for `N#Cc1ccc(Oc2cccc(NC(=O)[C@@H]3CNC[C@H]3c3ccccc3)c2)cc1` [Compound I-112, (3S,4R)—N-[3-(4-Cyanophenoxy)phenyl]-4-phenylpyrrolidine-3-carboxamide hydrochloride] was less than 1 µM; that for `S=C(Nc1cccc2cnccc12)O[C@@H]1CNC[C@H]1c1ccccc1` (racemic) [Compound I-2, (±)-trans-O-(4-Phenylpyrrolidin-3-yl) isoquinolin-5-ylcarbamothioate] was 1 to 10 µM.
On to `O=C(Nc1cccc(-c2cccnc2)c1)[C@@H]1CNC[C@H]1C1CCOCC1` (racemic) [Compound I-50, (±)-trans-N-[3-(Pyridin-3-yl)phenyl]-4-(tetrahydro-2H-pyran-4-yl)pyrrolidine-3-carboxamide dihydrochloride], for which the EC50 was greater than 50 µM.
Regarding `O=C(Nc1cccc2cnccc12)N1CCC(c2ccccc2)C1` (stereo not drawn) [Compound I-79, N-(Isoquinolin-5-yl)-3-phenylpyrrolidine-1-carboxamide], the EC50 is greater than 50 µM.
With `O=C(N[C@H]1C[C@H](Oc2ccc(F)nc2)C1)[C@@H]1CNC[C@H]1c1ccccc1` (racemic) [Compound I-116, (±)-trans-N-{trans-3-[(6-Fluoropyridin-3-yl)oxy]cyclobutyl}-4-phenylpyrrolidine-3-carboxamide dihydrochloride] the figure was 10 to 50 µM; with `O=C(NCc1cccc2cnccc12)[C@H]1CNC[C@@H]1c1ccccc1` [Compound I-67, (3R,4S)—N-(Isoquinolin-5-ylmethyl)-4-phenylpyrrolidine-3-carboxamide dihydrochloride], greater than 50 µM; with `O=C(Nc1cccc(-c2cccnc2)c1)[C@@H]1CNC[C@H]1c1ccccc1` (racemic) [Compound I-11, (±)-trans-4-Phenyl-N-[3-(pyridin-3-yl)phenyl]pyrrolidine-3-carboxamide], 1 to 10 µM.
In the case of `c1ccc([C@@H]2CNC[C@H]2Oc2nc(-c3cccnc3)cs2)cc1` (racemic) [Compound I-5, (±)-trans-3-{2-[(4-Phenylpyrrolidin-3-yl)oxy]-1,3-thiazol-4-yl}pyridine], the EC50 lay within 1 to 10 µM.
On to `O=C(Nc1cccc2c1OCCO2)[C@H]1CNC[C@@H]1c1ccccc1` (racemic) [Compound I-65, (±)-trans-N-(2,3-Dihydro-1,4-benzodioxin-5-yl)-4-phenylpyrrolidine-3-carboxamide hydrochloride], for which the EC50 was greater than 50 µM.
The value for `O=C(Nc1ccc(C2CCCCC2)cc1)[C@@H]1CNC[C@H]1c1ccccc1` (racemic) [Compound I-87, (±)-trans-N-(4-Cyclohexylphenyl)-4-phenylpyrrolidine-3-carboxamide hydrochloride] was 1 to 10 µM.
For `O=C(Nc1cccc(-c2ccccc2)c1)[C@@H]1CNC[C@H]1c1ccc(F)cc1` (racemic) [Compound I-23, (±)-trans-N-(Biphenyl-3-yl)-4-(4-fluorophenyl)pyrrolidine-3-carboxamide hydrochloride], the EC50 is 1 to 10 µM.
For `Cc1cccc(Oc2cccc(NC(=O)[C@H]3CNC[C@@H]3c3ccccc3)c2)c1` (racemic) [Compound I-97, (±)-trans-4-Phenyl-N-[3-(3-methylphenoxy)phenyl]pyrrolidine-3-carboxamide hydrochloride], the EC50 fell in the range of 1 to 10 µM.
For `O=C(N[C@H]1C[C@H](Oc2ccc(F)cc2)C1)[C@H]1CNC[C@@H]1c1ccccc1` (racemic) [Compound I-91, (±)-trans-N-[trans-3-(4-Fluorophenoxy)cyclobutyl]-4-phenylpyrrolidine-3-carboxamide hydrochloride], the EC50 fell in the range of 1 to 10 µM.
For `O=C(Nc1cccc(-c2cccnc2)c1)[C@H]1CNC[C@@H]1C1CCCCC1` (racemic) [Compound I-71, (±)-trans 4-Cyclohexyl-N-[3-(pyridin-3-yl)phenyl]pyrrolidine-3-carboxamide dihydrochloride], the EC50 lay in the range of 1 to 10 µM.
The value for `COc1ccc([C@@H]2CNC[C@H]2C(=O)Nc2cccc(-c3ccccc3)c2)cc1` (racemic) [Compound I-45, (±)-trans-N-(Biphenyl-3-yl)-4-(4-methoxyphenyl)pyrrolidine-3-carboxamide hydrochloride] was greater than 50 µM; that for `CN(C(=O)[C@H]1CNC[C@@H]1c1ccccc1)c1cccc2cnccc12` [Compound I-57, (3R,4S)—N-(Isoquinolin-5-yl)-N-methyl-4-phenylpyrrolidine-3-carboxamide dihydrochloride] was greater than 50 µM; that for `O=C(Nc1cccc(-c2cccnc2)c1)[C@@H]1CN(c2ccccc2)C[C@H]1c1ccccc1` (racemic) [Compound I-62, (±)-trans-1,4-Diphenyl-N-[3-(pyridin-3-yl)phenyl]pyrrolidine-3-carboxamide] was less than 1 µM.
`O=C(Nc1cccc(Oc2ccc(C(F)(F)F)nc2)c1)[C@@H]1CNC[C@H]1c1ccccc1` [Compound I-120, (3S,4R)-4-Phenyl-N-(3-{[6-(trifluoromethyl)pyridin-3-yl]oxy}phenyl) pyrrolidine-3-carboxamide dihydrochloride]: the EC50 lay in the range of 1 to 10 µM.
The value for `Cc1ccc(Oc2cccc(NC(=O)[C@H]3CNC[C@@H]3c3ccccc3)c2)cn1` (racemic) [Compound I-105, (±)-trans-4-Phenyl-N-{3-[(6-methylpyridin-3-yl)oxy]phenyl}pyrrolidine-3-carboxamide dihydrochloride] was 1 to 10 µM; that for `O=C(Nc1cccc2cnccc12)C1=C(c2ccccc2)CNC1` [Compound I-1, N-(Isoquinolin-5-yl)-4-phenyl-2,5-dihydro-1H-pyrrole-3-carboxamide] was 10 to 50 µM.
